These results are taken from patent publication US20250163119A1, “COMPOUNDS FOR THE TREATMENT OF DIABETES OR OBESITY” (Eli Lilly and Company, priority 2023, published 2025).

Series [1] addresses T1, human CRHR2 (Homo sapiens, UniProt Q13324).
T1 construct: expressed in transfected cells
T1 sequence (Q13324 1-438 isoform Q13324-2): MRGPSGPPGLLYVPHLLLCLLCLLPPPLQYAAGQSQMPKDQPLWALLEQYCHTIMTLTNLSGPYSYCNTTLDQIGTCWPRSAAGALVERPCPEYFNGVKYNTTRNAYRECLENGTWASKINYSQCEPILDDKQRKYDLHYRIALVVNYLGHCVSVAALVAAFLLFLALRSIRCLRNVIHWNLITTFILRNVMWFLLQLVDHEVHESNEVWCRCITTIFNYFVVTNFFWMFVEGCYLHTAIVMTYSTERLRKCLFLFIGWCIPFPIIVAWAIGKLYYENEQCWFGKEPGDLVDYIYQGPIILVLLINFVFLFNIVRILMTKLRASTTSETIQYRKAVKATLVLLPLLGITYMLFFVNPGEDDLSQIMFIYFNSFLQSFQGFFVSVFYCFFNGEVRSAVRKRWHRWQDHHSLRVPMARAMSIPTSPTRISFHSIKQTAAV
Kind of series: Human CRHR2 cAMP assay (HTRF) in HEK293 cells stably expressing human CRHR2. In kind it is cell-based. The note with it: HEK293 cells overexpressing human CRHR2; relative EC50, maximum 10 nM human UCN2; mean ± SE; read-out: hCRHR2 cAMP EC50 (pM, ± SE). An outline of the steps:
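Peptides were tested as 1:3 dilution series on thawed HEK293 cells stably expressing the receptor, in MEM with 0.1% casein, 5 mM HEPES pH 7.4 and 0.25 mM IBMX. CRHR1 cells (25,000/well) were incubated 1 h at 37° C; CRHR2 cells (5,000/well) 30 min at room temperature. cAMP was read by HTRF (665/620 nm) against a cAMP standard curve.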
For orientation: Changes in cAMP serve as a functional read-out for many G protein-coupled receptors.

The nature of series [2]: Pharmacokinetics in Yucatan mini-pigs, single subcutaneous or intravenous dose. In kind it is in vivo. As to the method:
Plasma concentrations of compounds were determined by LC/MS methods. For each assay, the compound and an internal standard (IS), were extracted from 100% mouse, rat, pig, or monkey plasma (70 μL) using Isopropanol-Methanol. Two distinct layers were formed upon centrifugation with the compound and the IS located in the supernatant layer. An aliquot of the supernatant (150 μL) was transferred to a Waters Sirocco Protein Precipitation Plate. The supernatant was eluted using a positive pressure manifold. The supernatant was mixed with 100-2 Water-Formic acid (400 μL) in a pretreated Sep-Pak tC18 SPE plate and eluted to waste. The peptide and IS were eluted with Acetonitrile-Formic acid (100 μL) in 2 steps (50 μL each step). The elution (40 μL) from SPE plate was mixed with diluent solution (1.875 μL 5× invitrosol and 3.125 μL 1% formic acid in water, 80 μL). A final sample (10 μl) was loaded onto a Xselect CSH C18 IS column (3.5 μm 2.1×20 mm). The column effluent was directed into a Thermo Fisher Scientific Orbitrap (Exploris 240) mass spectrometer for detection and quantitation.
Male Yucatan mini-pigs were administered a single subcutaneous dose or intravenous dose (19 or 99 nmol/kg) of compound in 40 mM Tris-HCl 5% D-mannitol (pH 8) at a volume of 0.01 or 0.05 mL/kg. Blood was collected from each animal at 0.083 (IV only), 0.5, 3, 6, 24, 48, 72, 96, 168, 240, 336, 408, and 504 hours postdose for pharmacokinetic characterization.

The mark [3] stands for this setting: Yucatan mini-pig, minipig, plasma, sc, male Yucatan pigs, single subcutaneous dose 19 nmol/kg, Mean, read-out: AUC0-inf.
Where [4] appears, read: Yucatan mini-pig, minipig, plasma, sc, male Yucatan pigs, single subcutaneous dose 19 nmol/kg, Mean, read-out: Cmax.
Where [5] appears, read: male Yucatan pigs, single subcutaneous dose 19 nmol/kg, individual animal.
Setting [6] is: male, Yucatan mini-pig, minipig, plasma, iv, 19 nmol/kg, single intravenous dose 19 nmol/kg, individual animal.
The mark [7] stands for this setting: male, Yucatan mini-pig, minipig, plasma, iv, 19 nmol/kg, single intravenous dose 19 nmol/kg, mean.
Setting [8] is: male, Yucatan mini-pig, minipig, plasma, sc, 19 nmol/kg, single subcutaneous dose 19 nmol/kg, Mean.
The mark [9] stands for this setting: male, Yucatan mini-pig, minipig, plasma, sc, 19 nmol/kg, single subcutaneous dose 19 nmol/kg, Mean, read-out: CL/F (converted).
The mark [10] stands for this setting: male, Yucatan mini-pig, minipig, plasma, sc, 19 nmol/kg, single subcutaneous dose 19 nmol/kg, Mean, read-out: Tmax.
The mark [11] stands for this setting: male, Yucatan mini-pig, minipig, plasma, sc, 19 nmol/kg, single subcutaneous dose 19 nmol/kg, individual animal.
The mark [12] stands for this setting: male, Yucatan mini-pig, minipig, plasma, sc, 19 nmol/kg, single subcutaneous dose 19 nmol/kg, individual animal, read-out: CL/F (converted).
The mark [13] stands for this setting: minipig, plasma, single intravenous dose 19 nmol/kg, male Yucatan pigs, mean, read-out: AUC0-inf.
The mark [14] stands for this setting: minipig, plasma, single intravenous dose 19 nmol/kg, male Yucatan pigs, mean, read-out: C0.
[15] abbreviates: single intravenous dose 19 nmol/kg, male Yucatan pigs, individual animal.
[16] abbreviates: male Yucatan pigs, single subcutaneous dose 18 nmol/kg, individual animal.
The mark [17] stands for this setting: male, Yucatan mini-pig, minipig, plasma, iv, 18 nmol/kg, single intravenous dose 18 nmol/kg, individual animal.
[18] abbreviates: male, Yucatan mini-pig, minipig, plasma, iv, 18 nmol/kg, single intravenous dose 18 nmol/kg, mean.
Setting [19] is: single intravenous dose 18 nmol/kg, male Yucatan pigs, individual animal.

Where “and” joins values, the source holds several entries; their conditions need not be identical. Equal entries are not always repeated. Where two headings read alike, the source gives them in different places. *1 amine or outer side, *2 acyl side, *3 side chain or, on linkers, in order; H or OH if unused. Side-chain parts run from the residue outwards. [ ]: non-standard residue; d: D form. The star is where a group is joined. C20 diacid = O=C(O)CCCCCCCCCCCCCCCCCCC(=O)*; γGlu = O=C(O)[C@H](CCC(=O)[*:2])N[*:1]; εLys = N[C@@H](CCCCN[*:1])C(=O)[*:2]; pGlu = O=C1CC[C@@H](C(=O)O)N1; αMeL = CC(C)C[C@](C)(N)C(=O)O; AEEA = NCCOCCOCC(=O)O; Aib = CC(C)(N)C(=O)O

A word on the EC50: it is the midpoint of the concentration-response curve. As usually defined, the Cmax is the peak of the concentration-time curve. The term Tmax denotes the time from dosing to the highest level. By half-life is commonly meant the time needed for the level to fall by half in the phase considered. Turning to “Ac-PPPIVTS[αMeL]DVPT[Aib][αMeL]LQKLLEQERAEKARQQAK([γGlu-AEEA-εLys-C20 diacid])EAAEILAQV-NH2 [SEQ ID NO: 48, Ac-PPPIVTS αMeL DVPT Aib αMeL LQKLLEQERAEKARQQAK(γE-(2-[2-(2-Amino-ethoxy)-ethoxy]-acetyl)-ϵK-CO-(CH2)18-CO2H)EAAEILAQV-NH2]”, the 50% effective concentration (EC50) in series [1] is 26.7 ± 3.8 pM. The AUC0-inf in series [2] (setting [3]) is 32.5 µM·h; in series [2] (setting [5]), 29.3 µM·h and 35.6 µM·h; in series [2] (setting [13]) it was 36.9 µM·h; in series [2] (setting [15]), 32.5 µM·h and 41.2 µM·h. The Cmax in series [2] (setting [4]) was 149 nM; in series [2] (setting [5]), 140 nM and 157 nM. Further, the “CL/F” value in series [2] (setting [5]) is 13.6 mL/day/kg; in series [2] (setting [9]), 14.6 mL/day/kg; in series [2] (setting [12]), 15.7 mL/day/kg. Moreover, the “T1/2” value in series [2] (setting [5]) is 66.8 h; in series [2] (setting [15]), 89.2 h. For the same substance, the “Tmax” value in series [2] (setting [5]) was 48 h and 6.0 h; in series [2] (setting [10]), 27 h. The clearance in series [2] (setting [6]) was 13.9 mL/day/kg; in series [2] (setting [7]) it was 12.5 mL/day/kg. In addition, the half-life in series [2] (setting [6]) is 86.7 h; in series [2] (setting [7]), 88 h; in series [2] (setting [8]), 68.5 h; in series [2] (setting [11]), 70.1 h. The C0 was 943 nM in series [2] (setting [14]); 899 nM and 987 nM in series [2] (setting [15]). The same substance yielded a CL in series [2] (setting [15]) of 11 mL/day/kg.
With “[pGlu]GSPSGIVTS[αMeL]DVPT[Aib][αMeL]LQKILEQERAEKARQQAK([γGlu-AEEA-εLys-C20 diacid])EAAEILAQV-NH2 [SEQ ID NO: 22, Pyr-GSPSGIVTS αMeL DVPT Aib αMeL LQKILEQERAEKARQQAK(γE-(2-[2-(2-Amino-ethoxy)-ethoxy]-acetyl)-ϵK-CO-(CH2)18-CO2H)EAAEILAQV-NH2]”, the half-maximal effective concentration (EC50) in series [1] turned out to be 11.3 ± 3 pM. For the same substance, the AUC0-inf in series [2] (Yucatan mini-pig, minipig, plasma, sc, male Yucatan pigs, single subcutaneous dose 18 nmol/kg, Mean, read-out: AUC0-inf) is 22.5 µM·h; in series [2] (setting [16]), 23.9 µM·h and 21 µM·h; in series [2] (minipig, plasma, single intravenous dose 18 nmol/kg, male Yucatan pigs, mean, read-out: AUC0-inf), 25.3 µM·h; in series [2] (setting [19]) it was 22.3 µM·h and 28.3 µM·h. Besides, the highest concentration (Cmax) was 154 nM in series [2] (Yucatan mini-pig, minipig, plasma, sc, male Yucatan pigs, single subcutaneous dose 18 nmol/kg, Mean, read-out: Cmax); 165 nM and 143 nM in series [2] (setting [16]). Also, the “CL/F” value in series [2] (setting [16]) is 21.3 mL/day/kg; in series [2] (male, Yucatan mini-pig, minipig, plasma, sc, 18 nmol/kg, single subcutaneous dose 18 nmol/kg, Mean, read-out: CL/F (converted)) it was 20 mL/day/kg; in series [2] (male, Yucatan mini-pig, minipig, plasma, sc, 18 nmol/kg, single subcutaneous dose 18 nmol/kg, individual animal, read-out: CL/F (converted)), 18.6 mL/day/kg. For the same substance, the “T1/2” value in series [2] (setting [16]) amounted to 85.8 h; in series [2] (setting [19]), 101 h. Also, the “Tmax” value was determined as 6.0 h in series [2] (setting [16]) and 15 h in series [2] (male, Yucatan mini-pig, minipig, plasma, sc, 18 nmol/kg, single subcutaneous dose 18 nmol/kg, Mean, read-out: Tmax). In addition, the clearance is 19.7 mL/day/kg in series [2] (setting [17]) and 17.6 mL/day/kg in series [2] (setting [18]). Also, the half-life in series [2] (setting [17]) was 90.1 h; in series [2] (setting [18]), 95.6 h; in series [2] (male, Yucatan mini-pig, minipig, plasma, sc, 18 nmol/kg, single subcutaneous dose 18 nmol/kg, Mean), 82.5 h; in series [2] (male, Yucatan mini-pig, minipig, plasma, sc, 18 nmol/kg, single subcutaneous dose 18 nmol/kg, individual animal), 79.1 h. The C0 is 418 nM in series [2] (minipig, plasma, single intravenous dose 18 nmol/kg, male Yucatan pigs, mean, read-out: C0); 373 nM and 462 nM in series [2] (setting [19]). In addition, in series [2] (setting [19]), the CL worked out at 15.5 mL/day/kg.
Regarding “{C20 diacid-εLys-AEEA-γGlu}-GSPSIVTS[αMeL]DVPT[Aib][αMeL]LQKILEQERAEKARQQATEAAEILAQV-NH2 [SEQ ID NO: 25]”, the 50% effective concentration (EC50) in series [1] amounted to 6.9 ± 0.5 pM. The AUC0-inf in series [2] (setting [3]) is 27.6 µM·h; in series [2] (setting [5]), 28.3 µM·h and 26.8 µM·h; in series [2] (setting [13]), 39.6 µM·h; in series [2] (setting [15]), 41.9 µM·h and 37.2 µM·h. The Cmax is 170 nM in series [2] (setting [4]); 159 nM and 181 nM in series [2] (setting [5]). The entries for the “CL/F” value in series [2] (setting [5]), in series [2] (setting [9]) and in series [2] (setting [12]) were 17.2 mL/day/kg, 16.8 mL/day/kg and 16.3 mL/day/kg, respectively. Also, the entries for the “T1/2” value in series [2] (setting [5]) and in series [2] (setting [15]) were 70.4 h and 86.8 h, respectively. For the same substance, the values for the clearance in series [2] (setting [6]) and in series [2] (setting [7]) were 10.9 mL/day/kg and 11.6 mL/day/kg, respectively. Moreover, the half-life was 106 h in series [2] (setting [6]), 96.4 h in series [2] (setting [7]), 75.6 h in series [2] (setting [8]) and 80.8 h in series [2] (setting [11]). For the same substance, the Tmax in series [2] (setting [10]) was found to be 24 h; in series [2] (male, Yucatan mini-pig, minipig, plasma, sc, 19 nmol/kg, single subcutaneous dose 19 nmol/kg, individual animal, read-out: Tmax), 24 h. Besides, the C0 in series [2] (setting [14]) is 534 nM; in series [2] (setting [15]), 522 nM and 545 nM. Moreover, the CL in series [2] (setting [15]) was determined as 12.2 mL/day/kg.
